For data set [1] the following is noted: background statement; cited from earlier work.
Data set [2] can be described thus: rat Comet assay (genotoxicity). Conditions: pre-clinical studies.
Data set [3] in a line: lipophilicity of Mn porphyrin complex.
Data set [4] in a line: toxicity compared with analogous alkyl-chain Mn porphyrins.
Data set [5] in a line: electrochemistry, Mn(III)/Mn(II) reduction potential. Type of data set: physicochemical. The procedure:
(§1) Electrochemistry, electrospray-ionization mass spectrometry (ESI-MS), UV-visible spectroscopy and SOD-like activity were carried out as previously described.^29, 32. All quantum chemistry calculations have been performed at the M06-2X/6-311++G(2d,p)//M06-2X/6-31+G(d) DFT level^33-38 using the Gaussian 09 software.^39 All frequency calculations were carried out at […] and used to characterize minima and transition states. The solvent effect has been taken into account using the CPCM continuum solvation model^40 for N,N-dimethylformamide (DMF). The free energies of reactants, transition states, and products have been obtained from the ideal gas partition functions for the structures optimized in solution^40 and corrected to include the compression work of the gas^41 (or liberation free energy^42) to standard 1 mol L^−1 concentration. The coulombic stabilization energy due to the formation of ionic pairs in DMF has also been included in the final results by approximating each ion as a sphere, whose volume was considered the same as that of the solute cavity;^43 the distance between cation and anion in the ionic pair was taken as the sum of the two sphere radii.

A short description of another data set: SOD-like activity. Type of data set: biochemical. The procedure:
as §1

The test system of a further data set is cells. Conditions: compared with ethyl analogue, background statement; cited from earlier work.

Where two headings read alike, the source gives them in different places.

In the case of `CC[n+]1ccccc1-c1c2nc(c(-c3cccc[n+]3CC)c3ccc([n-]3)c(-c3cccc[n+]3CC)c3nc(c(-c4cccc[n+]4CC)c4ccc1[n-]4)C=C3)C=C2.[Mn+3]` [MnTE-2-PyP^5+, Mn(III) meso-tetrakis-(N-ethylpyridinium-2-yl)porphyrins], the lipophilicity result in data set [1] is recorded as “low lipophilicity”.
For the compound `CCCCOCC[n+]1ccccc1C1=C2C=CC3=[N+]2[Mn]24[n]5c1ccc5C(c1cccc[n+]1CCOCCCC)=C1C=CC(=[N+]12)C(c1cccc[n+]1CCOCCCC)=c1ccc([n]14)=C3c1cccc[n+]1CCOCCCC` [MnTnBuOE-2-PyP^5+, Mn(III) meso-tetrakis-(N-n-butoxyethylpyridinium-2-yl)porphyrin], the “genotoxicity in a rat Comet assay” value in data set [2] is “lack of genotoxicity”. In addition, the lipophilicity entry in data set [3] was “lipophilic”. In addition, the toxicity entry in data set [4] is given as “low toxicity”. Besides, the “fold less toxic than analogous ortho alkyl MnP^5+” value in data set [4] (relative to analogous alkyl chains) is 4-5 fold. The “Mn(III)/Mn(II) reduction potential (E1/2)” value in data set [5] is “high”. In addition, the SOD-like activity result in “SOD-like activity” is listed as “high”.
As to `CCCCCC[n+]1ccccc1-c1c2nc(c(-c3cccc[n+]3CCCCCC)c3ccc([n-]3)c(-c3cccc[n+]3CCCCCC)c3nc(c(-c4cccc[n+]4CCCCCC)c4ccc1[n-]4)C=C3)C=C2.[Mn+3]` [MnTnHex-2-PyP^5+, Mn(III) meso-tetrakis-(N-n-hexylpyridinium-2-yl)porphyrin], in the data set with cells, the accumulation in cells result is on record as “higher levels than its ethyl analogue”.
